Data taken from publication PMC7802075 (ACS Infectious Diseases, 2020).
Where a name gives a salt, the structure may show the parent alone. Where a SMILES comes first, the peptide text is derived from it. The star is where a group is joined. Tfa = O=C(C(F)(F)F)*

Target: T1, LmjIPCS (inositol phosphorylceramide synthase from L. major) (Leishmania major, UniProt E9AFX2)
T1 sequence (E9AFX2 1-338): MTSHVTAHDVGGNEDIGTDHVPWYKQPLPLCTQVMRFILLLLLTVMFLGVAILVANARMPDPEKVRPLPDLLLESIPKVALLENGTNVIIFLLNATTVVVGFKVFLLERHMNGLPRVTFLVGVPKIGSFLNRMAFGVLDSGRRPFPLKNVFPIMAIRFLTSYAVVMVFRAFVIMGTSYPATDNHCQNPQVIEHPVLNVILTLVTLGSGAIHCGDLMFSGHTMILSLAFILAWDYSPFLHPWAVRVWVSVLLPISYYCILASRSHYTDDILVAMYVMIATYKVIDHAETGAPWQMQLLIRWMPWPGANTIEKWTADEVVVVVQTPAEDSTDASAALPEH
Assay: biochemical
Type: biochemical
Parameters: inhibition: dose or concentration left out as unconfirmed
Conditions: not given

| Molecule | 20mM inhibition LmjIPCS [%] |
| --- | --- |
| CN1CCCN=C1COC(=O)C(O)(c1ccccc1)C1CCCCC1 (centres unmarked) [OXYPHENCYCLIMINE] | 53 |
| C[C@]12CC[C@@H](OS(=O)(=O)O)C[C@@H]1CC[C@@H]1[C@@H]2CC[C@]2(C)C(=O)CC[C@@H]12 [ANDROSTERONE Sulfate] | 33 |
| DEGUELIN(-) | 51 |
| CO[C@H]1C[C@H](O[C@@H]2/C(C)=C/C[C@@H]3C[C@@H](C[C@]4(CC[C@H](C)[C@@H](C5CCCCC5)O4)O3)OC(=O)[C@@H]3C=C(C)/C(=N/O)[C@H]4OC/C(=C\C=C\[C@@H]2C)[C@]43O)O[C@@H](C)[C@@H]1O [SELAMECTIN] | 45 |
| CN1CCC(=C2c3ccccc3CC(=O)c3sccc32)CC1 [KETOTIFEN] | 36 |
| CCCC(C)(COC(N)=O)COC(=O)NC(C)C (centres unmarked) [CARISOPRODOL] | 52 |
| CN(C)CCc1c[nH]c2ccc(C[C@H]3COC(=O)N3)cc12 [ZOLMITRIPTAN] | 44 |
| O=c1ccc2cc(O[C@@H]3O[C@H](CO)[C@@H](O)[C@H](O)[C@H]3O)c(O)cc2o1 [AESCULIN] | 10 |
| N[C@@H](Cc1c[nH]c2ccccc12)C(=O)O [TRYPTOPHAN] | 34 |
| CC(C)OC(=O)C(C)(C)Oc1ccc(C(=O)c2ccc(Cl)cc2)cc1 [FENOFIBRATE] | 58 |
| COC(=O)[C@]1(C)CC[C@]2(C)CC[C@]3(C)C4=CC=C5C(=CC(=O)C(O)=C5C)[C@]4(C)CC[C@@]3(C)[C@@H]2C1 [PRISTIMERIN] | 62 |
| CCOc1ccc(NC(C)=O)cc1 [PHENACETIN] | 38 |
| HECOGENIN | 23 |
| CCCCOc1cc(C(=O)NCCN(CC)CC)c2ccccc2n1 [DIBUCAINE] | 63 |
| CC(C)(C)NCC(O)c1ccccc1Cl (centres unmarked) [TULOBUTEROL] | 51 |
| CN1CCN(C2=Nc3ccccc3Oc3ccc(Cl)cc32)CC1 [LOXAPINE] | 68 |
| CCCNC(C)C(=O)Nc1ccccc1C (centres unmarked) [PRILOCAINE] | 34 |
| COc1ccc2cc1Oc1ccc(cc1)C[C@H]1c3cc(c(OC)cc3CCN1C)Oc1c(OC)c(OC)cc3c1[C@H](C2)N(C)CC3 [TETRANDRINE] | 65 |
| Cc1cc(O)ccc1Cl [CHLOROCRESOL] | 49 |
| O=[N+]([O-])c1cc(O)c(O)c([N+](=O)[O-])c1 [3,5-DINITROCATECHOL] | 8 |

Same assay, conditions: NINDS set screen, single concentration printed as 20mM

| Molecule | 20mM inhibition LmjIPCS [%] |
| --- | --- |
| O=C(O)CCCC[C@@H]1CCSS1 (racemic) [THIOCTIC ACID] | 55 |
| COc1ccc(C(Cl)=C(c2ccc(OC)cc2)c2ccc(OC)cc2)cc1 [CHLOROTRIANISENE] | 65 |
| O=C1C(O)=C([C@H]2CC[C@H](c3ccc(Cl)cc3)CC2)C(=O)c2ccccc21 [ATOVAQUONE] | 46 |
| Cc1cc2cc3c(C)cc(=O)oc3c(C)c2o1 [TRIOXSALEN] | 42 |
| CC(CCc1ccccc1)NC(C)C(O)c1ccc(O)cc1 (centres unmarked) [NYLIDRIN HYDROCHLORIDE] | 54 |

Same assay, conditions: NINDS set screen; read-out: inhibition LmjIPCS

| Molecule | inhibition [%] |
| --- | --- |
| CC1=C(/C=C/C(C)=C/C=C/C(C)=C/C=C/C=C(C)/C=C/C=C(C)/C=C/C(=O)[C@]2(C)C[C@@H](O)CC2(C)C)C(C)(C)C[C@H](O)C1 [CAPSANTHIN] | 33 |
| CC1(C)O[C@@H]2[C@@H](CO[C@@]3(COS(N)(=O)=O)OC(C)(C)O[C@@H]23)O1 [TOPIRAMATE] | 16 |
| O=C(O)c1ccccc1OP(=O)(O)O [FOSFOSAL] | 13 |
| O=C(CCCN1CCC2(CC1)C(=O)NCN2c1ccccc1)c1ccc(F)cc1 [SPIPERONE] | -6 |
| CN1CC(=O)NC1=N [CREATININE] | 15 |
| O=C(CCCCCCCCCCCCC1CCCC1)Nc1ccc(S(=O)(=O)c2ccc(NC(=O)CCCCCCCCCCCCC3CCCC3)cc2)cc1 [CHAULMOSULFONE] | 32 |
| Nc1ccc(S(=O)(=O)Nc2ccc(Cl)nn2)cc1 [SULFACHLORPYRIDAZINE] | 23 |

Same assay, conditions: read-out: 20mM inhibition LmjIPCS

| Molecule | inhibition at 20000 µM [%] |
| --- | --- |
| CCN1CCN(C(=O)N[C@@H](C(=O)N[C@@H]2C(=O)N3C(C(=O)O)=C(CSc4nnnn4C)CS[C@H]23)c2ccc(O)cc2)C(=O)C1=O [CEFOPERAZONE] | 13 |
| NC(=O)c1ccc(N)nc1 [6-AMINONICOTINAMIDE] | 7.54 |
| CC[C@@H](C)C(=O)O[C@H]1[C@H](O)[C@H]2[C@@H](CN3C[C@@H](C)CC[C@H]3[C@@]2(C)O)[C@@H]2C[C@]34O[C@]5(O)[C@@H](OC(=O)[C@](C)(O)[C@@H](C)O)CC[C@@]3(C)[C@@H]5[C@@H](OC(C)=O)[C@@H](OC(C)=O)[C@H]4[C@@]21O (stereo in doubt) [PROT[…]] | 14 |
| OC[C@H]1O[C@@H](O[C@@H]2[C@@H](CO)OC(O)(CO)[C@H]2O)[C@H](O)[C@@H](O)[C@H]1O (mixture of isomers) [LACTULOSE] | 26 |
| CC(=O)O[C@]1(C(C)=O)CC[C@H]2[C@@H]3C=C(Cl)C4=CC(=O)CC[C@]4(C)[C@H]3CC[C@@]21C [CHLORMADINONE ACETATE] | 13 |
| [O-][n+]1ccccc1S [PYRITHIONE ZINC] | 10 |
| Cn1c(=O)[nH]c(=O)c2[nH]cnc21 [3-METHYLXANTHINE] | 12 |
| O=[N+]([O-])NC1=NCCN1Cc1ccc(Cl)nc1 [IMIDACLOPRID] | 8 |
| CC(C)[C@H](NC(=O)[C@H](Cc1ccc(O)cc1)NC(=O)[C@@H](NC(=O)C(F)(F)F)C(C)C)C(=O)O [Tfa-VAL-TYR-VAL-OH] (Tfa-Val-Tyr-Val-OH) | 7.54 |
| COCCc1ccc(OCC(O)CNC(C)C)cc1 (centres unmarked) [METOPROLOL] | 21 |
| CC1=C(C(=O)O)N2C(=O)[C@@H](NC(=O)[C@H](N)c3ccccc3)[C@H]2SC1 [CEPHALEXIN] | 5.26 |
| CC(=O)[C@@]1(O)CC[C@H]2[C@@H]3C[C@H](C)C4=CC(=O)C=C[C@]4(C)[C@@]3(F)[C@@H](O)C[C@@]21C [FLUOROMETHOLONE] | 3 |
| CCCC(=O)O[C@]1(C(=O)CO)CC[C@H]2[C@@H]3CCC4=CC(=O)CC[C@]4(C)[C@H]3[C@@H](O)C[C@@]21C [HYDROCORTISONE BUTYRATE] | 5.61 |
| CC1(C)O[C@@H]2C[C@H]3[C@@H]4CCC5=CC(=O)CC[C@]5(C)[C@@]4(F)[C@@H](O)C[C@]3(C)[C@]2(C(=O)CCl)O1 [HALCINONIDE] | 20 |
| CCC[C@@H]1C[C@@H](C(=O)N[C@@H]([C@H]2O[C@H](SC)[C@H](O)[C@@H](O)[C@H]2O)[C@@H](C)O)N(C)C1 [LINCOMYCIN] | 8.53 |
| CC1(C)O[C@@H]2C[C@H]3[C@@H]4C[C@H](F)C5=CC(=O)C=C[C@]5(C)[C@H]4[C@@H](O)C[C@]3(C)[C@]2(C(=O)CO)O1 [FLUNISOLIDE] | -10 |
| CC(=O)OCC(=O)[C@@]12OC(C)(C)O[C@@H]1C[C@H]1[C@@H]3C[C@H](F)C4=CC(=O)C=C[C@]4(C)[C@@]3(F)[C@@H](O)C[C@@]12C [FLUOCINONIDE] | 6 |
| CC1CCc2cc(F)cc3c(=O)c(C(=O)O)cn1c23 (centres unmarked) [FLUMEQUINE] | 5 |
| N[C@@H](CCC(=O)N[C@@H](CS)C(=O)NCC(=O)O)C(=O)O [GLUTATHIONE] | -0.349 |
| CC(C)C[C@H](NC(=O)CN)C(=O)N[C@@H](Cc1ccccc1)C(=O)O (H-Gly-Leu-Phe-OH) | 11 |
| CC(C(=O)O)c1ccc(N2Cc3ccccc3C2=O)cc1 (centres unmarked) [INDOPROFEN] | -1.7 |
| CCCc1nc(C(C)(C)O)c(C(=O)OCc2oc(=O)oc2C)n1Cc1ccc(-c2ccccc2-c2nnn[nH]2)cc1 [OLMESARTAN MEDOXOMIL] | 21 |
| COc1ccc(C(=O)CC(=O)c2ccc(C(C)(C)C)cc2)cc1 [AVOBENZONE] | 0.941 |

Same assay, conditions: read-out: inhibition LmjIPCS

| Molecule | inhibition [%] |
| --- | --- |
| CC(=O)O[C@H]1C(=O)[C@@]2(C)[C@H]([C@H](OC(=O)c3ccccc3)[C@]3(O)C[C@H](OC(=O)[C@H](O)[C@@H](NC(=O)c4ccccc4)c4ccccc4)C(C)=C1C3(C)C)[C@]1(OC(C)=O)CO[C@@H]1C[C@@H]2O [PACLITAXEL] | 0.0705 |
| Cc1cc(C)nc(NS(=O)(=O)c2ccc(N)cc2)n1 [SULFAMETHAZINE] | 1.49 |
| C#C[C@]1(O)CC[C@H]2[C@@H]3CCC4=Cc5oncc5C[C@]4(C)[C@H]3CC[C@@]21C [DANAZOL] | 19 |
| NC(=O)N1c2ccccc2CC(=O)c2ccccc21 [OXCARBAZEPINE] | -4 |
| COc1cc2c(cc1OC)-c1cc3ccc(OC)c(OC)c3c[n+]1CC2 [PALMATINE CHLORIDE] | 16 |
| COc1ccc(CN(CCN(C)C)c2ccccn2)cc1 [PYRILAMINE] | 5.27 |

Same assay, conditions: screening of NINDS set, sheet Screen 1; read-out: inhibition LmjIPCS

| Molecule | inhibition [%] |
| --- | --- |
| CCOC(=O)NNc1nncc2ccccc12 [TODRALAZINE] | 2 |
| Cc1cc(=O)[nH]c(=S)[nH]1 [METHYLTHIOURACIL] | 7 |
| CCC1(C)CC(=O)NC1=O (centres unmarked) [ETHOSUXIMIDE] | 6 |
| O=C(O)c1cc(O)c2ccc(Cl)cc2n1 [7-CHLOROKYNURENIC ACID] | 9 |
| O=C(O)c1cc2ccccc2[nH]1 [INDOLE-2-CARBOXYLIC ACID] | 8 |
| C[N+]1(CCCCC[N+]2(C)CCCC2)CCCC1 [PENTOLINIUM] | 11 |
| CC(=O)NCCCCCC(=O)O [ACEXAMIC ACID] | 6 |
| CC(CN(C)C)CN1c2ccccc2CCc2ccccc21 (centres unmarked) [TRIMIPRAMINE] | 2 |
| C[C@](N)(Cc1ccc(O)c(O)c1)C(=O)O [METHYLDOPA] | 8 |
| COC(=O)Nc1nc2ccc([S+]([O-])c3ccccc3)cc2[nH]1 (centres unmarked) [OXFENDAZOLE] | 10 |
